Assay results as given in patent US20210221848A1, “POLYMYXIN DERIVATIVES AND THEIR USE IN COMBINATION THERAPY TOGETHER WITH DIFFERENT ANTIBIOTICS” (priority 2014, published 2021).
Like-named read-outs stand apart in the source and are kept apart here.

What was measured:
E. coli [1] = system: E. coli
[2] = system: Pseudomonas aeruginosa ATCC 27853; format: in vivo; settings: mouse lungs, P. aeruginosa ATCC 27853, SC at 2, 6 and 10 h post-infection, 16 h infection model
Method: Groups of 7 male neutropenic specific-pathogen-free CD-1 mice weighing 21.5-27.5 g were used. On Day 0, animals were infected with 0.04 mL inoculum by intranasal instillation into mouse nostrils and were kept in an upright position on a string rack for ˜10 min post-infection. […] At 2 h, the CFU count was determined from 3 mice and the remaining mice (7 per test compound groups) were treated with a subcutaneous injection of the drug at +2, 6 and 10 hr post-infection. Test compounds and the comparator polymyxin B were administered at four concentrations (2.6, 8.6, 17.2 and 25.8 mg/kg free base). The vehicle control group (7 mice) was treated with 0.9% saline for injection at 2, 6 and 10 h post-infection.
Sixteen hours after infection, the mice were euthanized humanely. The lungs of each animal were harvested, homogenized and quantitatively cultured onto CLED agar for CFU determination. Decrease of the total CFU compared to control counts at 16 h post-infection was determined for each dose group.
The in vivo efficacy of 4 compounds of the invention (D25, D36, D42 and D50) was evaluated in a mouse lung infection model of P. aeruginosa ATCC 27853. The model was setup as described above with the exception that groups of up to 8 mice were inoculated through intranasal instillation of ˜2.5×10^6 CFUs of P. aeruginosa isolate ATCC 27853 (1.0×10^5 CFU/lung). Test compounds were administered at two concentrations (equivalent to 4.3 and 17.2 mg/kg free base). Three dose levels of polymyxin B sulfate were used as comparator (equivalent to 4.3, 8.6 and 17.2 mg/kg free base).

A. baumannii = test: MIC in 1:1 (wt:wt) combination with Rifampicin; format: cell-based, Acinetobacter baumannii; settings: 1:1 (wt:wt) with Rifampicin, total drug concentration
Method: The inoculum was prepared by making a direct suspension of isolated colonies (selected from an 18-24 hour Mueller-Hinton agar plate) adjusted to the 0.5 McFarland standard. […] The assays were performed in duplicate. […] In cases where the duplicate values varied by less than 2-fold, the lower of the two values is reported. If a variation of greater than 2-fold was observed, the assay was considered non-valid. Several of the compounds were subjected to multiple tests, and where this is the case, the MIC reflects the modal value obtained.
MIC values (microgram/mL) refer to the total drug concentration (i.e. test agent plus Rifampicin).

E. coli [3] = test: MIC in the presence of a fixed concentration (2 μg/mL) of Rifampicin; format: cell-based, Escherichia coli; settings: Rifampicin 2 μg/mL, Table 5C
[4] = system: Acinetobacter baumannii NCTC 13301; settings: mouse thigh, 16 h model
[5] = system: Escherichia coli ATCC 25922; settings: mouse thigh, 3.4 mg/kg/dose free base IV at 1, 3.5 and 6 h post-infection, 9 h model

Polymyxin B [PMB, reference compound]
MIC (E. coli [1]; E. coli ATCC 25922): 0.25 µg/mL | MIC, E. coli ATCC 25922 (E. coli [1]; E. coli ATCC 25922, absence of a second agent, Table 6B): 0.25 micrograms/mL | MIC (E. coli [1]; E. coli NCTC 13441): 0.25 µg/mL | MIC, E. coli NCTC 13441 (E. coli [1]; E. coli NCTC 13441, absence of a second agent, Table 6B): 0.25 micrograms/mL | MIC, E. coli ATCC 25922 (E. coli [1]; strain ATCC 25922, compound alone): 0.25 micrograms/mL | MIC E. coli CCUG 59342 (E. coli [1]; strain CCUG 59342, compound alone): 0.125 micrograms/mL | Mean log10 CFU reduction vs. control ([2]; 8.6 mg/kg/dose free base): 1.46 log10 CFU | Mean log10 CFU reduction vs. control ([2]; 17.2 mg/kg/dose free base): 2.87 log10 CFU | MIC in 1:1 combination with rifampicin, A. baumannii 053 (A. baumannii; A. baumannii 053): ≤0.5 microgram/mL | MIC in 1:1 combination with rifampicin, A. baumannii 056 (A. baumannii; A. baumannii 056): ≤0.5 microgram/mL | MIC in combination with Rifampicin, E. coli ATCC 25922 (E. coli [3]; E. coli ATCC 25922): ≤0.015 micrograms/mL | MIC in combination with Rifampicin, E. coli NCTC 13441 (E. coli [3]; E. coli NCTC 13441): 0.03 micrograms/mL | Mean log10 CFU reduction vs. control ([4]; 0.215 mg/kg/dose free base SC at 2, 6 and 10 h post-infection): 0.17 log10 CFU | Mean log10 CFU reduction vs. control ([4]; 0.86 mg/kg/dose free base SC at 2, 6 and 10 h post-infection): 1.64 log10 CFU | Mean log10 CFU reduction vs. control ([4]; 2.6 mg/kg/dose free base SC at 2, 6 and 10 h post-infection): 5.44 log10 CFU | Mean log10 CFU reduction vs. control ([4]; 8.6 mg/kg/dose free base SC at 2, 6 and 10 h post-infection): 6.15 log10 CFU | Mean log10 CFU reduction vs. control ([4]; 17.2 mg/kg/dose free base SC at 2, 6 and 10 h post-infection): 6.53 log10 CFU | Mean log10 CFU reduction vs. control [5]: 4.32 log10 CFU
